The series in a line: Solubilities of lamotrigine in various non-aqueous solvents and purified water. It is filed as physicochemical.

Structures are written as SMILES. Values after ≈ are worked out from the molar mass of the structure shown.

Broadly, the solubility is the concentration that dissolves in the medium under given conditions. As for `Nc1nnc(-c2cccc(Cl)c2Cl)c(N)n1` [lamotrigine, 3,5-diamino-6-(2,3-dichlorophenyl)-1,2,4-triazine], the solubility (organic solvent or mixture, solvent Glycerin) is 20.2 mg/mL (≈ 79 mM); the solubility (organic solvent or mixture, solvent PEG 400) was greater than 30 mg/mL; the solubility (organic solvent or mixture, solvent Polypropylene glycol 400) is 10 to 20 mg/mL (≈ 39 to 78.1 mM); the solubility (organic solvent or mixture, solvent Propylene Glycol) is 40.2 mg/mL (≈ 157 mM); the concentration in solution (solvent Purified water) (solubility) was 0.31 mg/mL (≈ 1.21 mM).

The values are drawn from patent publication US12661360B2 (Tulex Pharmaceuticals Inc., priority 2023, dated 2026).
